Measured values published in article PMC8373216, “Development and Preclinical Evaluation of New Inhaled Lipoglycopeptides for the Treatment of Persistent Pulmonary Methicillin-Resistant Staphylococcus aureus Infections” (Antimicrobial Agents and Chemotherapy, 2021).
Values after ≈ are worked out from the molar mass of the structure shown. Where two headings read alike, the source gives them in different places.

Columns and labels:
[1] = test system: MRSA ATCC BAA 1556 (USA300) biofilm; experiment: Static MRSA biofilm killing, plastic microtiter plate, MEM
Streptococcus agalactiae = experiment: Expanded panel broth microdilution MIC/MBC; assay type: cell-based
MSSA ATCC 29213 = experiment: In-house broth microdilution MIC screening; assay type: cell-based; conditions: Staphylococcus aureus, read-out: MIC Value, MSSA ATCC 29213
Pseudomonas aeruginosa = experiment: Expanded panel broth microdilution MIC; assay type: cell-based
Cutibacterium acnes = experiment: Expanded panel broth microdilution MIC; assay type: cell-based
C. freundii = experiment: Expanded panel broth microdilution MIC; assay type: cell-based; conditions: Citrobacter freundii
[2] = test system: MRSA ATCC BAA 1556 (USA300); experiment: In-house broth microdilution MIC screening; assay type: cell-based, Staphylococcus aureus; conditions: Staphylococcus aureus, read-out: MIC Value, MRSA ATCC BAA 1556
K. pneumoniae = experiment: Expanded panel broth microdilution MIC; assay type: cell-based
P. vulgaris = experiment: Expanded panel broth microdilution MIC; assay type: cell-based; conditions: Proteus vulgaris
Burkholderia cepacia = experiment: Expanded panel broth microdilution MIC; assay type: cell-based
Streptococcus anginosus = experiment: Expanded panel broth microdilution MIC/MBC; assay type: cell-based; conditions: for MIC: Streptococcus anginosus
Acinetobacter baumannii = experiment: Expanded panel broth microdilution MIC; assay type: cell-based
[3] = test system: Streptococcus dysgalactiae; experiment: Expanded panel broth microdilution MIC/MBC; assay type: cell-based; conditions: for MIC: Streptococcus dysgalactiae
Clostridium. perfringens = experiment: microbe, parasite or virus in culture; assay type: cell-based
Haemophilus influenzae = experiment: Expanded panel broth microdilution MIC; assay type: cell-based
E. cloacae = experiment: Expanded panel broth microdilution MIC; assay type: cell-based; conditions: Enterobacter cloacae
Eggerthella lenta = experiment: Expanded panel broth microdilution MIC; assay type: cell-based
P. mirabilis = experiment: Expanded panel broth microdilution MIC; assay type: cell-based; conditions: Proteus mirabilis, ATCC43071
[4] = Single-dose nebulized nose-only inhalation PK in healthy rats; assay type: in vivo, rat; conditions: single nebulized nose-only inhaled dose, healthy rats
Summary of the method: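 Ten or eleven rats per cohort dosed once by nebulized nose-only inhalation, delivered dose estimated from 5 min aerosol filter sampling. Lungs and plasma collected from immediately postdose (~30 min) to 168 h; drug quantified by LC-MS/MS after protein precipitation. PK by noncompartmental analysis, linear up/log down.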

[5] = test system: Staphylococcus lugdunensis; experiment: Expanded panel broth microdilution MIC; assay type: cell-based
[6] = test system: MRSA ATCC BAA 1556 (USA300) biofilm; experiment: MRSA biofilm killing, MBEC assay system, TSB with 1% human plasma
H. parainfluenzae = experiment: Expanded panel broth microdilution MIC; assay type: cell-based; conditions: Haemophilus parainfluenzae
S. marcescens = experiment: Expanded panel broth microdilution MIC; assay type: cell-based; conditions: Serratia marcescens, ATCC43862
E. coli = experiment: Expanded panel broth microdilution MIC; assay type: cell-based; conditions: Escherichia coli
Enterococcus faecium = experiment: Expanded panel broth microdilution MIC/MBC; assay type: cell-based; conditions: for MIC: Enterococcus faecium
Moraxella catarrhalis = experiment: Expanded panel broth microdilution MIC; assay type: cell-based

Structure (SMILES): CN[C@H](CC(C)C)C(=O)N[C@H]1C(=O)N[C@@H](CC(N)=O)C(=O)N[C@H]2C(=O)N[C@H]3C(=O)N[C@H](C(=O)N[C@H](C(=O)O)c4cc(O)cc(O)c4-c4cc3ccc4O)[C@H](O)c3ccc(c(Cl)c3)Oc3cc2cc(c3O[C@@H]2O[C@H](CO)[C@@H](O)[C@H](O)[C@H]2O[C@H]2C[C@](C)(N)[C@H](O)[C@H](C)O2)Oc2ccc(cc2Cl)[C@H]1O [Vancomycin, vancomycin]
- Reduction in MRSA biofilm titer ([1]; >20 μg/ml dose): 3 log10 CFU/ml
- Reduction in MRSA biofilm titer versus control ([1]; doses 1 to 10 μg/ml): approximately 2 log10 CFU/ml
- Concentrations with statistically significant reduction versus control biofilm ([1]; two-way ANOVA, Bonferroni): ≥ 22 µg/mL
- MIC (Streptococcus agalactiae; S. agalactiae MMX 4115, ermR): 0.25 µg/mL (≈ 0.173 µM)
- MIC (Streptococcus agalactiae; S. agalactiae ermR, 1 isolate): 0.25 µg/mL (≈ 0.173 µM)
- MIC:MBC (Streptococcus agalactiae; S. agalactiae, MBC on one organism): 4
- MIC (Streptococcus agalactiae; Streptococcus agalactiae): 0.25 µg/mL (≈ 0.173 µM)
- MIC (Streptococcus agalactiae; Streptococcus agalactiae, ATCC13813): 0.25 µg/mL (≈ 0.173 µM)
- MIC (Streptococcus agalactiae; Streptococcus agalactiae, read-out: MIC (median)): 0.25 µg/mL (≈ 0.173 µM)
- MIC (MSSA ATCC 29213): 1 µg/mL (≈ 0.69 µM)
- MIC (Pseudomonas aeruginosa): > 64 µg/mL
- MIC (Pseudomonas aeruginosa; ATCC27853): > 64 µg/mL
- MIC (Cutibacterium acnes; ATCC6919): 0.25 µg/mL (≈ 0.173 µM)
- MIC (Cutibacterium acnes; ATCC11827): 0.12 µg/mL (≈ 0.0828 µM)
- MIC (Cutibacterium acnes; read-out: MIC (median)): 0.19 µg/mL (≈ 0.131 µM)
- MIC (C. freundii): > 64 µg/mL
- MIC [2]: 1 µg/mL (≈ 0.69 µM)
- MIC (K. pneumoniae; K. pneumoniae MMX 4679, KPC-2): > 64 µg/mL
- MIC (K. pneumoniae; Klebsiella pneumoniae): > 64 µg/mL
- MIC (P. vulgaris): > 64 µg/mL
- MIC (Burkholderia cepacia): > 64 µg/mL
- MIC:MBC (Streptococcus anginosus; S. anginosus AGS): >8
- MIC (Streptococcus anginosus): 0.5 µg/mL (≈ 0.345 µM)
- MIC (Streptococcus anginosus; ATCC33397): 0.5 µg/mL (≈ 0.345 µM)
- MIC (Acinetobacter baumannii; A. baumannii MMX 6974, colistinR): > 64 µg/mL
- MIC (Acinetobacter baumannii; Acinetobacter baumannii): > 64 µg/mL
- MIC (Acinetobacter baumannii; Acinetobacter baumannii, NCTC13304): > 64 µg/mL
- MIC:MBC ([3]; S. dysgalactiae, MBC on one organism): >8
- MIC ([3]; S. dysgalactiae MMX 5121): 0.25 µg/mL (≈ 0.173 µM)
- MIC ([3]; S. dysgalactiae MMX 5123): 0.25 µg/mL (≈ 0.173 µM)
- MIC ([3]; S. dysgalactiae MMX 5124): 0.25 µg/mL (≈ 0.173 µM)
- MIC ([3]; read-out: MIC (median), S. dysgalactiae, 3 isolates): 0.25 µg/mL (≈ 0.173 µM)
- MIC (Clostridium. perfringens): 0.25 µg/mL (≈ 0.173 µM)
- MIC (Clostridium. perfringens; ATCC13124, read-out: MIC): 0.25 µg/mL (≈ 0.173 µM)
- MIC (Haemophilus influenzae): 64 µg/mL (≈ 44.2 µM)
- MIC (Haemophilus influenzae; ATCC49247): > 64 µg/mL
- MIC (E. cloacae; ATCC49141): > 64 µg/mL
- MIC (E. cloacae; ATCCBAA1143): > 64 µg/mL
- MIC (Eggerthella lenta): 0.5 µg/mL (≈ 0.345 µM)
- MIC (Eggerthella lenta; ATCC43055): 0.5 µg/mL (≈ 0.345 µM)
- MIC (P. mirabilis): > 64 µg/mL
- half-life ([4]; male, Sprague Dawley, rat, in vivo, inhaled or intranasal, noncompartmental analysis, read-out: Lung t1/2 (converted)): 23 h
- Kp ([4]; male, Sprague Dawley, rat, in vivo, inhaled or intranasal, read-out: Lung: Plasma Cmax ratio): 4
- Cmax ([4]; male, Sprague Dawley, rat, in vivo, inhaled or intranasal, read-out: Plasma Cmax): 8000 ng/mL
- Pulmonary dose ([4]; measured directly in lung tissue): 0.20 mg/kg
- Lung AUC0-∞ [4]: 671 µg·h/g
- Lung Cmax [4]: 31 µg/g
- MIC ([5]; S. lugdunensis, 1 isolate): 0.25 µg/mL (≈ 0.173 µM)
- MIC ([5]; Staphylococcus lugdunensis): 0.25 µg/mL (≈ 0.173 µM)
- Maximum reduction in MRSA biofilm titer relative to control ([6]; MBEC, 512 μg/ml): 1.1 log10 CFU/peg
- Concentrations with statistically significant reduction versus control biofilm ([6]; MBEC, two-way ANOVA, Bonferroni): ≥ 16 µg/mL
- Reduction in MRSA biofilm titer ([6]; plasma-supplemented MBEC assay, dose not stated): ~1 log10 CFU/peg
- MIC (H. parainfluenzae): 64 µg/mL (≈ 44.2 µM)
- MIC (S. marcescens): > 64 µg/mL
- MIC (E. coli): > 64 µg/mL
- MIC (E. coli; ATCC25922): > 64 µg/mL
- MIC:MBC (Enterococcus faecium; E. faecium VanB VRE): >2
- MIC (Enterococcus faecium; E. faecium MMX 4204, VSE): 0.5 µg/mL (≈ 0.345 µM)
- MIC (Enterococcus faecium; E. faecium VSE, 1 isolate): 0.5 µg/mL (≈ 0.345 µM)
- MIC (Enterococcus faecium; VRE, E. faecium MMX 173, VanB VRE): 64 µg/mL (≈ 44.2 µM)
- MIC (Enterococcus faecium; VRE, E. faecium MMX 851, VanA VRE): 128 µg/mL (≈ 88.3 µM)
- MIC (Enterococcus faecium; VRE, E. faecium VanA VRE, 1 isolate): 128 µg/mL (≈ 88.3 µM)
- MIC (Enterococcus faecium; VRE, E. faecium VanB VRE, 1 isolate): 64 µg/mL (≈ 44.2 µM)
- MIC (Moraxella catarrhalis): 16 µg/mL (≈ 11 µM)
- MIC (Moraxella catarrhalis; ATCC8176): 32 µg/mL (≈ 22.1 µM)
- MIC (Moraxella catarrhalis; ATCC8193): 64 µg/mL (≈ 44.2 µM)
